Values quoted from earlier work in patent US20080274189A1, “Organic Compounds Comprising a Glycopyrr Onium Salt” (priority 2005, published 2008).

Conditions: aerosol formulation, single administration of a metered dose, asthma

## C[N+]1(C)CCC(OC(=O)C(O)(c2ccccc2)C2CCCC2)C1.[Br-] (racemic) [glycopyrrolate, 3-[(cyclopentyl-hydroxyphenylacetyl)oxy]-1,1-dimethylpyrrolidinium bromide]
  duration of bronchodilation: up to 12 hours
